{"source": "patent US20180258404A1", "about": "“METHODS OF GENERATING NEPHRONS FROM HUMAN PLURIPOTENT STEM CELLS” (THE BRIGHAM AND WOMEN'S HOSPITAL, INC., priority 2015, published 2018)", "molecules": {"B1": {"name": "activin: growth factor used to induce posterior intermediate mesoderm (protein, UniProt P08476 311-426, looked up)", "Inhibin beta A chain": "GLECDGKVNICCKKQFFVSFKDIGWNDWIIAPSGYHANYCEGECPSHIAGTSGSSLSFHSTVINHYRMRGHSPFANLKSCCVPTKLRPMSMLYYDDGQNIIKKDIQNMIVEECGCS", "modifications": "Inhibin beta A chain", "notes": "growth factor used to induce posterior intermediate mesoderm"}, "B2": {"name": "noggin: a BMP4 signaling antagonist (protein, UniProt Q13253 28-232, looked up)", "Noggin": "QHYLHIRPAPSDNLPLVDLIEHPDPIFDPKEKDLNETLLRSLLGGHYDPGFMATSPPEDRPGGGGGAAGGAEDLAELDQLLRQRPSGAMPSEIKGLEFSEGLAQGKKQRLSKKLRRKLQMWLWSQTFCPVLYAWNDLGSRFWPRYVKVGSCFSKRSCSVPEGMVCKPSKSVHLTVLRWRCQRRGGQRCGWIPIQYPIISECKCSC"}, "B3": {"name": "BMP4: growth factor; posteriorizes the primitive streak (protein, UniProt P12644 293-408, looked up)", "Bone morphogenetic protein 4": "SPKHHSQRARKKNKNCRRHSLYVDFSDVGWNDWIVAPPGYQAFYCHGDCPFPLADHLNSTNHAIVQTLVNSVNSSIPKACCVPTELSAISMLYLDEYDKVVLKNYQEMVVEGCGCR"}, "B4": {"name": "WNT4: growth factor tested in 3D culture screening (protein, UniProt P56705 23-351, looked up)", "Protein Wnt-4": "SNWLYLAKLSSVGSISEEETCEKLKGLIQRQVQMCKRNLEVMDSVRRGAQLAIEECQYQFRNRRWNCSTLDSLPVFGKVVTQGTREAAFVYAISSAGVAFAVTRACSSGELEKCGCDRTVHGVSPQGFQWSGCSDNIAYGVAFSQSFVDVRERSKGASSSRALMNLHNNEAGRKAILTHMRVECKCHGVSGSCEVKTCWRAVPPFRQVGHALKEKFDGATEVEPRRVGSSRALVPRNAQFKPHTDEDLVYLEPSPDFCEQDMRSGVLGTRGRTCNKTSKAIDGCELLCCGRGFHTAQVELAERCSCKFHWCCFVKCRQCQRLVELHTCR"}, "B5": {"name": "mouse Wnt9b: growth factor tested in 3D culture screening (protein, UniProt O35468 24-359, looked up)", "Protein Wnt-9b": "AAYFGLTGREVLTPFPGLGTAAAPAQAGAHLKQCDLLKLSRRQKQLCRREPGLAETLRDAAHLGLLECQFQFRQERWNCSLEGRTGLLQRGFKETAFLYAVSAAALTHALARACSAGRMERCTCDDSPGLESRQAWQWGVCGDNLKYSTKFLSNFLGPKRGSKDLRARADAHNTHVGIKAVKSGLRTTCKCHGVSGSCAVRTCWKQLSPFRETGQVLKLRYDTAVKVSSATNEALGRLELWAPAKPGGPAKGLAPRPGDLVYMEDSPSFCRPSKYSPGTAGRVCSRDSSCSSLCCGRGYDTQSRMVVFSCHCQVQWCCYVECQQCAQQELVYTCKR"}, "B6": {"name": "BMP7: growth factor tested in 3D culture screening (protein, UniProt P18075 293-431, looked up)", "Bone morphogenetic protein 7": "STGSKQRSQNRSKTPKNQEALRMANVAENSSSDQRQACKKHELYVSFRDLGWQDWIIAPEGYAAYYCEGECAFPLNSYMNATNHAIVQTLVHFINPETVPKPCCAPTQLNAISVLYFDDSSNVILKKYRNMVVRACGCH"}}, "type_in_all_cases": "cell-based, human", "key": {"kidney organoids": {"system": "kidney organoids", "assay": "Aristolochic acid toxicity and nephroprotection model in kidney organoids", "conditions": "for PGC-1a expression (real-time quantitative PCR): AA alone or AA with cilostamide", "source_text": "FIG. 34. […] Representative immunohistochemistry of aristolochic acid (AA) and tenofovir (TFV) treatments. Day 32 Kg-derived organoids. Al/AA treatments for 24H, while all TFV treatments for 48 H. Scale bars, 50 gm. Quantification determined as a percentage of DAP/+ cells. n=3, total DAP/+>1000 for each treatment. (*) indicates p-value<0.05.\nFIG. 35. OAT1 inhibition by probenecid protects proximal tubules against AA toxicity. Representative immunohistochemistry of probenecid treatments with AA 2.5 gg/mL. Day 38 Kg-derived organoids. All treatments for 48 H. Scale bars, 50 um. Quantification determined as a percentage of DAPI+ cells. n=3, total DAPI+>1000 for each treatment. (*) indicates p-value<0.05.\nFIG. 36. […] Representative immunohistochemistry of cilostamide and sildenafi/treatments with AA 2.5 gg/mL. Day 38 H9-derived organoids. All treatments for 48 H. Scale bars, 50 gm. Quantification determined as a percentage of DAPI+ cells. n=3, total DAPI+>1000 for each treatment. (*) indicates p-value<0.05.\nFIG. 37. Real-time quantitative PCR mRNA was extracted from organoid samples and confirmed with Nanodrop. cDNA library Was generated by reverse transcription. AQP-I is prominently expressed on proximal tubules. PGC1-a is the master regulator of mitochondrial biogenesis."}, "NPCs in 3D culture": {"system": "NPCs in 3D culture", "assay": "Growth factor and small molecule screening in 3D culture (LTL+ tubules)", "conditions": "added in 3D culture from day 10", "method": "FIG. 10. Spontaneous differentiation of SIX2+ cells into nephrons and growth factor screening in 3D culture. (a) Staining with PAX8 and LHX1 in hESCs on day 10 of the differentiation. hESCs were differentiated with CHIR 8 µM for 4 days, activn 10 ng/ml for 3 days, and FGF9 10 ng/ml for 3 days. […] Scale bar: 50 μm. (b) Brighfield imaging for hESCs on day 10 and 21 of the differentiation. FGF9 was withdrawn on day 10, and cells were cultured in the basic medium by day 21. Scale bars: 50 μm. (c) Brightfield and immunocytochemistry for LTL and NPHS1 in hESCs on day 28 of the differentiation. Scale bar: 50 μm. (d) The protocol for growth factor screening. Cells were replated to 3D culture on day 10, and the listed growth factors and small molecules were tested. (e) The number of LTL+ tubules in the organoids. […] (f) Brightfield imaging of 3D co-culture with an ureteric bud cell sphere. Scale bar: 100 μm. (g) Whole-mountstaining for LTL in the organoids on day 16. Scale bar: 100 μm. (h) Immunohistochemistry of the organoids on day 16. Scale bars: 50 μm. LTL: lotus tetragonolobus lectin. NPHS1: Nephrin.\nTo test whether the formation of epithelial structures could be facilitated by 3D culture conditions, on day 10, at the time of FGF9 withdrawal, the Inventors replated NPCs in ultra-low-attachment, round-bottom 96-well plates and cultured them for 1 week. NPCs formed 3D spherical aggregates, one per 96-well, in suspension culture."}, "H9 hESCs": {"system": "H9 hESCs", "assay": "Differentiation of hESCs into posterior intermediate mesoderm", "conditions": "for WT1 expression on day 7: added to CHIR in the first step, hESCs", "method": "(§1) hPSCs grown on Geltrex were washed once with PBS (Life Technologies, #10010-049) and dissociated into single cells with Accutase ([…] Technologies, #07920). Cells were then plated at a density of 2-2.4×10^4 (H9) or 1-1.4×10^4 (HDF, 2C) cells/cm^2 onto 24-well tissue culture plates (TPP, #92024) coated with 1% Geltrex in ReproFF2 supplemented with the ROCK inhibitor Y27632 (10 μM) (TOCRIS, #1254) and FGF2 (10 ng/ml). After 72 hours, cells (50% confluent) were briefly washed in PBS and then cultured in basic differentiation medium consisting of Advanced RPMI 1640 (Life Technologies, #12633-020) and 1X L-GlutaMAX (Life Technologies, #35050-061) supplemented with CHIR99021 (8-10 μM) (TOCRIS, #4423) for 4 days to induce late primitive streak cells Noggin (5 ng/ml) was also used for hiPSC differentiation in addition to CHIR (10 μM). To induce posterior intermediate mesoderm, cells were then cultured in Advanced RPMI+1X L-GlutaMAX+activin (10 ng/mL) (R&D, #338-AC-050) for 3 days. For induction of nephron progenitor cells, the media was then changed to Advanced RPMI+1X L-GlutaMAX+FGF9 (10 ng/ml) (R&D, #273-F9-025/CF) for 7 days. CHIR (3 μM) was added to the media from day 9 to 11 of differentiation to induce renal vesicles. On day 14, cells were switched to the basic differentiation medium and cultured for an additional 7 to 14 days (total of 21 to 28 days). The medium was replaced every 2 or 3 days. A variety of growth factors and small molecules were tested for differentiation.\nPAX2 and LHX1 were not expressed (FIG. 1f), confirming that activin treatment of late primitive streak cells produced posterior and not anterior IM cells.\nAs the posterior primitive streak is induced by a BMP4 signal gradient, the Inventors hypothesized that CHIR treatment of HDF-α hiPSCs might induce endogenous BMP4 production that promotes differentiation into the posterior primitive streak and subsequently lateral plate mesoderm. […] Optimizing the protocol for individual cell lines based on their endogenous BMP4 production maximized the efficiency of generating posterior IM."}, "HDF-α hiPSCs": {"system": "HDF-α hiPSCs", "assay": "Differentiation of hiPSCs into posterior intermediate mesoderm", "method": "as §1, with “The medium was replaced every 2 or 3 days. A variety of growth factors and small molecules were tested for differentiation.” left out"}}, "note": "Entries after “also recorded” stand apart in the source; their conditions may differ.", "data": [{"molecule": "COc1cccc2c1cc([N+](=O)[O-])c1c(C(=O)O)cc3c(c12)OCO3", "note": "[AA, aristolochic acid]", "values": [{"measurement": "PGC-1a expression (real-time quantitative PCR)", "setting": "kidney organoids", "value": "downregulated"}, {"measurement": "kidney damage biomarkers by immunohistochemistry", "setting": "kidney organoids; AA treatments for 24H, day 32 organoids", "value": "dose-dependent upregulation of kidney damage biomarkers"}]}, {"molecule": "O=C(Nc1cccc2cccnc12)c1ccc(N2C(=O)[C@@H]3[C@H](C2=O)[C@@H]2C=C[C@H]3C2)cc1", "note": "[IWR-1]", "values": [{"measurement": "number of LTL+ tubules in the organoids", "setting": "NPCs in 3D culture", "value": "did not significantly increase the number of LTL+ tubules"}]}, {"molecule": "CCCN(CCC)S(=O)(=O)c1ccc(C(=O)O)cc1", "note": "[Probenecid, probenecid]", "values": [{"measurement": "nephroprotection against AA", "setting": "kidney organoids; Probenecid 10 LIM with AA 2.5 gg/mL, 48 H, day 38 organoids", "value": "provided strongest nephroprotection against AA"}, {"measurement": "damage to organoids", "setting": "kidney organoids; probenecid alone, 48 H, day 38 organoids", "value": "causes no damage to organoids"}]}, {"molecule": "NC(=O)c1ccc(-c2nc(-c3ccc4c(c3)OCO4)c(-c3ccccn3)[nH]2)cc1", "note": "[SB431542]", "values": [{"measurement": "number of LTL+ tubules in the organoids", "setting": "NPCs in 3D culture", "value": "did not significantly increase the number of LTL+ tubules"}]}, {"molecule": "CN(C(=O)CCCOc1ccc2[nH]c(=O)ccc2c1)C1CCCCC1", "note": "[cilostamide]", "values": [{"measurement": "PGC-1a expression (real-time quantitative PCR)", "setting": "kidney organoids", "value": "protected"}, {"measurement": "nephroprotection against AA (real-time quantitative PCR, AQP-I)", "setting": "kidney organoids; cilostamide with AA", "value": "dose-dependent nephroprotection against AA, significant preservation of proximal tubules"}, {"measurement": "mitochondrial biogenesis and protection", "setting": "kidney organoids; cilostamide with AA 2.5 gg/mL, 48 H, day 38 H9-derived organoids", "value": "increases mitochondrial biogenesis and protection in AA-toxicity model"}]}, {"molecule": "HGF: growth factor tested in 3D culture screening", "values": [{"measurement": "number of LTL+ tubules in the organoids", "setting": "NPCs in 3D culture", "value": "did not significantly increase the number of LTL+ tubules; also recorded: showed a tendency to increase LTL+ tubules"}]}, {"molecule": "IGF-1: growth factor tested in 3D culture screening", "values": [{"measurement": "number of LTL+ tubules in the organoids", "setting": "NPCs in 3D culture", "value": "did not significantly increase the number of LTL+ tubules"}]}, {"molecule": "JAG1: growth factor tested in 3D culture screening", "values": [{"measurement": "number of LTL+ tubules in the organoids", "setting": "NPCs in 3D culture", "value": "did not significantly increase the number of LTL+ tubules"}]}, {"molecule": "B1", "values": [{"measurement": "efficiency of induction of WT1+HOXD11+ cells", "setting": "H9 hESCs; activin 10 ng/mL between days 4 and 7, after CHIR 8 μM for 4 days", "value": "~90", "unit": "%"}, {"measurement": "efficiency of generation of WT1+HOXD11+ posterior IM cells", "setting": "HDF-α hiPSCs; activin after CHIR plus noggin 5 ng/mL in the first step", "value": "80-90%"}]}, {"molecule": "B2", "values": [{"measurement": "WT1 expression on day 7", "setting": "H9 hESCs", "value": "significantly suppressed WT1 expression on day 7"}, {"measurement": "T, TBX6 and FOXF1 expression on day 4", "setting": "HDF-α hiPSCs; noggin 5 ng/mL with CHIR in the first step of differentiation", "value": "expressed T and TBX6 but not FOXF1 on day 4"}]}, {"molecule": "B3", "values": [{"measurement": "FOXF1 expression at day 4", "setting": "H9 hESCs; BMP4 1 ng/mL added to CHIR", "value": "resulted in FOXF1 expression at day 4"}, {"measurement": "WT1 expression on day 7", "setting": "H9 hESCs", "value": "suppression of WT1 expression on day 7"}]}, {"molecule": "B4", "values": [{"measurement": "number of LTL+ tubules in the organoids", "setting": "NPCs in 3D culture", "value": "did not significantly increase the number of LTL+ tubules"}]}, {"molecule": "B5", "values": [{"measurement": "number of LTL+ tubules in the organoids", "setting": "NPCs in 3D culture", "value": "did not significantly increase the number of LTL+ tubules"}]}, {"molecule": "B6", "values": [{"measurement": "number of LTL+ tubules in the organoids", "setting": "NPCs in 3D culture", "value": "did not significantly increase the number of LTL+ tubules"}]}]}
